Results taken from patent publication US9822414B2, “In vitro method for predicting in vivo genotoxicity of chemical compounds” (priority 2011, dated 2017).
Where “and” joins values, the source holds several entries; their conditions need not be identical. Equal entries are not always repeated. Where two headings read alike, the source gives them in different places.

Key:
SLC40A1 = assay: Gene expression of SLC40A1 in HepG2 cells exposed to compound (microarray, log2 treatment:control ratio); assay type: cell-based, human; conditions: HepG2 cells; for Log2 treatment: control ratio SLC40A1: 24 h exposure, Ames negative compounds, one line per replicate of triplicate experiments; for SLC40A1: expression versus reference value, single measurement of three
PNMA6A = assay: Gene expression of PNMA6A in HepG2 cells exposed to compound (microarray, log2 treatment:control ratio); assay type: cell-based, human; conditions: HepG2 cells; for Log2 treatment: control ratio PNMA6A: 24 h exposure, Ames negative compounds, one line per replicate of triplicate experiments; for PNMA6A: expression versus reference value, single measurement of three
C10orf65/HOGA1 = assay: Gene expression of C10orf65/HOGA1 in HepG2 cells exposed to compound (microarray, log2 treatment:control ratio); assay type: cell-based, human; conditions: for Log2 treatment: control ratio C10orf65/HOGA1: 24 h exposure, Ames negative compounds, one line per replicate of triplicate experiments; for C10orf65/HOGA1: expression versus reference value, single measurement of three
Salmonella typhimurium = conditions: cited from earlier work
rodents = conditions: cited from earlier work
[1] = tested on: conventional in vitro genotoxicity assays; conditions: cited from earlier work
HepG2 cell = assay: Class prediction of in vivo genotoxicity by the method of the invention (Ames stratification plus three-gene expression in HepG2); conditions: for Prediction (class prediction results using the method of the invention): 62 compounds, three replicates, HepG2 24 h; for At least ⅔ genes +?: per single measurement, GTX when at least two out of three genes above reference value
[2] = standard in vivo genotoxicity designation

Structure (SMILES) | Log2 treatment: control ratio SLC40A1 (SLC40A1) | Log2 treatment: control ratio PNMA6A (PNMA6A) | Log2 treatment: control ratio C10orf65/HOGA1 (C10orf65/HOGA1) | C10orf65/HOGA1 (C10orf65/HOGA1) | Ames (Salmonella typhimurium) | Standard (rodents; in vivo) | In vitro GTX [1] | Prediction (class prediction results using the method of the invention) (HepG2 cell) | Average result over three measurements (HepG2 cell) | At least ⅔ genes +? (HepG2 cell) | SLC40A1 (SLC40A1) | PNMA6A (PNMA6A) | Standard (rodents; [2]) | Ames (Salmonella typhimurium; Ames results based on NTP data) | Results in the conventional in vitro genotoxicity assays ([1]; see Table 5) | Classification of NGTX compounds by the method of the invention (false positives) (HepG2 cell; in vivo NGTX compounds) | In vivo GTX (rodents; positive when at least one in vivo assay (MN, CA) positive, equivocal considered positive)
C=CC(=O)OCC [EtAc, Ethylacrylate] | −0.448 and 0.634 and 0.031 | 0.375 and 0.243 and 0.409 | 0.391 and 0.429 and 0.624 | + (above the reference value) | − | NGTX | + | GTX | GTX | GTX |  |  |  |  |  |  | 
CCc1ccccc1 [EthylB] | −0.23 and −0.141 and 0.295 | 0.313 and 0.434 and 0.392 | −0.18 and 0.116 and −0.084 | − (below the reference value) | − |  | + | NGTX |  |  | − (below the reference value) | + (above the reference value) | NGTX |  |  |  | 
CCOc1ccc(NC(C)=O)cc1 [Phen] | −0.646 and 0.127 and −0.048 | −0.023 and 0.218 and −0.237 | 0.043 and 0.056 and 0.034 | − (below the reference value) | − |  | + | NGTX |  |  | − (below the reference value) | − (below the reference value) | NGTX |  |  |  | 
Oc1cccc(O)c1 [RR, Resorcinol] |  |  |  | + (above the reference value) |  |  | + | GTX | GTX | GTX | + (above the reference value) | + (above the reference value) | NGTX | − | positive results | misclassification | 
CCC[CH2][Sn]([CH2]CCC)([CH2]CCC)[O][Sn]([CH2]CCC)([CH2]CCC)[CH2]CCC [TBTO] | 0.604 and 1.649 and 0.208 | 0.909 and 0.663 and 0.456 | 0.426 and 0.098 and 0.858 |  | − |  | + | GTX | GTX | GTX |  | + (above the reference value) | GTX |  |  |  | +
Clc1cc2c(cc1Cl)Oc1cc(Cl)c(Cl)cc1O2 [TCDD] | 0.169 and −0.21 and 0.104 | −0.041 and 0.26 and 0.072 | −0.107 and 0.056 and 0.151 |  | − |  | − | NGTX |  |  | − (below the reference value) |  | NGTX |  |  |  | 
